Data taken from patent US10159668B2, “Pharmaceutical composition for inhibiting alpha-glucosidase” (Tamkang University, priority 2017, dated 2018).

Experiments:
[1] = target: rat α-glucosidase (Rat aG); assay: Test of IC50: inhibitive activity on rat α-glucosidase; assay type: biochemical; settings: Embodiment 2, Table 2, single components
Excerpt: (§1) Testing and comparing the inhibitive activity Max % and IC50 of the composition and a known diabetes drug A (α-glucosidase inhibitor) to rat α-glucosidase (abbreviated as Rat aG) and yeast α-glucosidase (abbreviated as Yeast aG), individually. IC50 means the concentration of the inhibitor to achieve 50% inhibition rate.
(§2) The present embodiment tests IC50 of adenine, 3-hydroxy-dl-proline, nicotinic acid, (3,6-dioxo-piperazin-2-yl)-acetic acid amide, 2-ethylhexyl heptanoate, and the diabetes drug A to Rat aG and Yeast aG, individually.

[2] = target: yeast α-glucosidase (Yeast aG); assay type: biochemical; settings: Embodiment 2, Table 2, single components
Excerpt: as §1, §2

Rat aGI (IC50 to Rat aG) [1] [µg/mL] | Yeast aGI (IC50 to Yeast aG) [2] [µg/mL] | SMILES
105 | 4.0 | CCCCCCC(=O)OCC(CC)CCCC (stereo not shown) [2-ethylhexyl heptanoate]
105 | 4.0 | NC(=O)CC1NC(=O)CNC1=O (stereo not shown) [(3,6-dioxo-piperazin-2-yl)-acetic acid amide]
 | 21.5 | Nc1ncnc2nc[nH]c12 [Adenine]
67 | 517 | O=C(O)c1cccnc1 [Nicotinic acid]
